Patent US20260042764A1, “COMPOSITIONS AND METHODS FOR INHIBITION OF KRAS” (TheRas, Inc., priority 2022, published 2026)

Test system: H1573 cells (KRAS G12A)
Assay: Cell-based pERK HTRF assay in H1573 cells (Biological Example 5)
Details: Homo sapiens, NCI-H1573
Description: Biological Example 5: Cell-based PERK HTRF assay in AsPC-1, SW1900, HPAC, Capan-2, RKN, H358, HCT116, KP-2, H1573, A549, MKN1, and HT1080 cells
The inhibition of ERK phosphorylation, as measured using the HTRF Advanced Phospho-ERK 1/2 (Thr202/Tyr204) Detection Assay kit (Perkin Elmer), was used to determine the effectiveness of test compounds in disrupting KRAS-driven protein/effector signaling in cells.
On day 1, cells were seeded into 96-well plates at 2.5×10^4 cells/well in 100 μL of complete growth media supplemented with 10% fetal bovine serum (FBS) and incubated at 37° C., in the presence of 5% CO2.
On day 2, cells were treated with compounds diluted in DMSO at 0.25% final DMSO concentration. Compounds were dosed in a 9-point concentration curve with three-fold dilution between concentrations. Cells were incubated in the presence of compound for two hours at 37° C. Following this treatment period, cells were harvested by aspirating the media, adding 40 μL of kit-supplied 1x lysis buffer per well, and shaking for 30 minutes at 250 rpm at room temperature.
Following cell lysis, samples were homogenized by pipetting up and down twenty times and 16 μL of cell lysate per well was transferred from the 96-well cell culture plate to two wells of a 384-well detection plate. A complete detection buffer was prepared by diluting D2 and Eu Cryptate antibodies 1:20 in kit-provided detection solution, 4 μL of complete detection buffer was then added to each well with lysate. Plates were incubated with gentle rocking for 24 hours at 4° C.
Following this incubation period, plates were centrifuged at 500×g for one minute and analyzed on a CLARIOstar plate reader. Data was imported into Microsoft Excel and the signal from the 665 nm channel was divided by the signal from the 620 nm channel. % pERK was calculated as: […]
Data was imported to the Prism software package (Graphpad) and EC50 values were calculated using the log (inhibitor) vs, response—variable slopc (Four parameters) model.

SMILES	IC50 [µM]
CCC(=O)N1CC[C@@H](N(CC)c2nc(OC[C@@]34CCCN3C[C@H](F)C4)nc3c(F)c(-c4ccc(F)c5sc(N)c(C#N)c45)c(C(F)(F)F)cc23)[C@H]1C (atropisomer, axis not shown) [Compound 523]	≤ 0.1
CCN(c1nc(OC[C@@]23CCCN2C[C@H](F)C3)nc2c(F)c(-c3ccc(F)c4sc(N)c(C#N)c34)c(C(F)(F)F)cc12)[C@@H]1CCN(C(=O)C2CC2)[C@@H]1C (atropisomer, axis not shown) [Compound 524]	≤ 0.1
CCN(c1nc(OC[C@@]23CCCN2C[C@H](F)C3)nc2c(F)c(-c3ccc(F)c4sc(N)c(C#N)c34)c(C(F)(F)F)cc12)[C@H]1CCN(C(=O)N(C)C)C1 (atropisomer, axis not shown) [Compound 540, (3S)-3-[[7-(2-amino-3-cyano-7-fluoro-benzothiophen-4-yl)-8-fluoro-2-[[(2R,8S)-2-fluoro-1,2,3,5,6,7-hexahydropyrrolizin-8-yl]methoxy]-6-(trifluoromethyl)quinazolin-4-yl]-ethyl-amino]-N,N-dimethyl-pyrrolidine-1-carboxamide]	≤ 0.1
CCN(c1nc(OC[C@@]23CCCN2C[C@H](F)C3)nc2c(F)c(-c3ccc(F)c4sc(N)c(C#N)c34)c(C(F)(F)F)cc12)[C@H]1CCN(C(=O)OC)C1 (atropisomer, axis not shown) [Compound 541, methyl(3S)-3-[[7-(2-amino-3-cyano-7-fluoro-benzothiophen-4-yl)-8-fluoro-2-[[(2R,8S)-2-fluoro-1,2,3,5,6,7-hexahydropyrrolizin-8-yl]methoxy]-6-(trifluoromethyl)quinazolin-4-yl]-ethyl-amino]pyrrolidine-1-carboxylate]	≤ 0.1
CCN(c1nc(OC[C@@]23CCCN2C[C@H](F)C3)nc2c(F)c(-c3ccc(F)c4sc(N)c(C#N)c34)c(C(F)(F)F)cc12)[C@H]1CCN(C(=O)C(C)C)C1 (single isomer, unassigned) [Compound 469]	≤ 0.1
Cc1c(C(=O)N(C)C)nn2c1CN(c1nc(OC[C@@]34CCCN3C[C@H](F)C4)nc3c(F)c(-c4ccc(F)c5sc(N)c(C#N)c45)c(C(F)(F)F)cc13)CC2 [Compound 501]	0.1 to 1

Test system: HCT116 cells (KRAS G13D)
Assay: 3D Cell viability assay in HCT116 cells (Biological Example 6)
Type: cell-based
Details: Homo sapiens, HCT-116; HCT116 (KRAS G13D) spheroids, 72 hours
In short: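 EC50 values come from a four-parameter variable-slope fit of CellTiter-Glo 3D luminescence in spheroid cultures treated 72 h with a nine-point, three-fold dilution series.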

SMILES	IC50 [µM]
CCN(c1nc(OC[C@@]23CCCN2C[C@H](F)C3)nc2c(F)c(-c3ccc(F)c4sc(N)c(C#N)c34)c(C(F)(F)F)cc12)[C@H]1CCS(=O)(=O)C1 (atropisomer, axis not shown) [Compound 492]	0.1 to 1
CCN(c1nc(OC[C@@]23CCCN2C[C@H](F)C3)nc2c(F)c(-c3ccc(F)c4sc(N)c(C#N)c34)c(C(F)(F)F)cc12)[C@H]1CCN(C(=O)OC)C1 (atropisomer, axis not shown) [Compound 541, methyl(3S)-3-[[7-(2-amino-3-cyano-7-fluoro-benzothiophen-4-yl)-8-fluoro-2-[[(2R,8S)-2-fluoro-1,2,3,5,6,7-hexahydropyrrolizin-8-yl]methoxy]-6-(trifluoromethyl)quinazolin-4-yl]-ethyl-amino]pyrrolidine-1-carboxylate]	0.1 to 1
